Measurements from patent publication US9725445B2, “Cycloalkyl nitrile pyrazolo pyridones as Janus kinase inhibitors” (Merck Sharp & Dohme Corp., priority 2013, dated 2017).

target: JAK1 (Homo sapiens (Human), UniProt P23458); experiment: Jak biochemical HTRF assay, JAK1; conditions: HTRF biochemical assay, recombinant GST-tagged catalytic domain; read-out: JAK1 IC50
Experimental: Jak Biochemical HTRF Assay Protocol
The ability of compounds to inhibit the activity of JAK1, JAK2, JAK3, and Tyk2 was measured using a recombinant purified GST-tagged catalytic domain for each enzyme (Invitrogen JAK1 #M4290, JAK2 #M4290, JAK3 #M4290, Tyk2 #M4290) in an HTRF format biochemical assay. […] The basic assay protocol is as follows: First, 250 nL of diluted compounds in DMSO were dispensed into the wells of a dry 384-well Black plate (Greiner #781076) using a Labcyte Echo 555 acoustic dispenser. Subsequent reagent additions employed an Agilent Bravo. […] After equilibration, 2 μL of 10×ATP in 1× assay buffer was added to initiate the kinase reaction and the plates were shaken and then incubated at room temperature for 120 minutes. […] Plates were shaken and centrifuged and then incubated 60 minutes at room temperature and then read on a Perkin Elmer Envision (λex=337 nm, λem=665 and 615 nm, TRF delay time=20 μs). HTRF signal=10,000*665 nm reading/615 nm reading. After normalization to untreated controls, the percent inhibition of the HTRF signal at each compound concentration was calculated. The plot of percent inhibition versus the log of compound concentration was fit with a 4-parameter dose response equation to calculate IC50 values.
Final Reaction Conditions were:
Examples of the instant invention were evaluated in JAK1 and JAK2 in vitro binding assays.

JAK1, sequence (P23458 875-1153): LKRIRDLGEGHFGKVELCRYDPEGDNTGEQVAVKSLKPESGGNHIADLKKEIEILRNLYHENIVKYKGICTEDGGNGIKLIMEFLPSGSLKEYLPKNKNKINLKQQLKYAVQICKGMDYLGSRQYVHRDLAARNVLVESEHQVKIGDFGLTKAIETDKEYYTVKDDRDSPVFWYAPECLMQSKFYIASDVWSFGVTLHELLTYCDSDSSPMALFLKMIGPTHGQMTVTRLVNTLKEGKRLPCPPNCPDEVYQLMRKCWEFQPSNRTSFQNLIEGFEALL

| IC50 [nM] | SMILES |
| --- | --- |
| 1.2 | C[C@H](N[C@H]1CC[C@H](n2nc(Nc3ccc(C(F)(F)F)cc3)c3c(=O)[nH]ccc32)[C@@H](C#N)C1)C1CC1 [Example 5-12, (1S,2S,5S)-5-(((S)-1-cyclopropylethyl)amino)-2-(4-oxo-3-((4-(trifluoromethyl)phenyl)amino)-4,5-dihydro-1H-pyrazolo[4,3-c]pyridin-1-yl)cyclohexanecarbonitrile] |
| 1.1 | CC1c2cc(Nc3nn([C@H]4CCCC[C@@H]4C#N)c4cc[nH]c(=O)c34)ccc2S(=O)(=O)N1CC(F)(F)F (single isomer, unassigned) [Example 3-129, (1S,2S)-2-(3-(((R or S)-3-methyl-1,1-dioxido-2-(2,2,2-trifluoroethyl)-2,3-dihydrobenzo[d]isothiazol-5-yl)amino)-4-oxo-4,5-dihydro-1H-pyrazolo[4,3-c]pyridin-1-yl)cyclohexanecarbonitrile] |
| 0.095 | CC1c2cc(Nc3nn([C@H]4CCCC[C@@H]4C#N)c4cc[nH]c(=O)c34)ccc2S(=O)(=O)N1CC(F)(F)F (single isomer, unassigned) [Example 3-128, (1S,2S)-2-(3-(((R or S)-3-methyl-1,1-dioxido-2-(2,2,2-trifluoroethyl)-2,3-dihydrobenzo[d]isothiazol-5-yl)amino)-4-oxo-4,5-dihydro-1H-pyrazolo[4,3-c]pyridin-1-yl)cyclohexanecarbonitrile] |
| 14 | N#C[C@@H]1CCCC[C@H]1n1nc(Nc2cccc(CNC(=O)c3cnco3)c2)c2c(=O)[nH]ccc21 [Example 3-13, N-[3-({1-[(1R,2R)-2-cyanocyclohexyl]-4-oxo-4,5-dihydro-1H-pyrazolo[4,3-c]pyridin-3-yl}amino)benzyl]-1,3-oxazole-5-carboxamide] |
| 0.11 | CN(C)C(c1ccc(Nc2nn([C@H]3CCCC[C@@H]3C#N)c3cc[nH]c(=O)c23)cc1)C(F)(F)F (single isomer, unassigned) [Example 9-4, (1S,2S)-2-(3-(4-((R or S)-1-(Dimethylamino)-2,2,2-trifluoroethyl)phenylamino)-4-oxo-4,5-dihydropyrazolo[4,3-c]pyridin-1-yl)cyclohexanecarbonitrile] |
| 0.046 | CC(C)(C)N1Cc2cc(Nc3nn([C@@H]4CCCCC[C@H]4C#N)c4cc[nH]c(=O)c34)ccc2S1(=O)=O (single isomer, unassigned) [Example 3-177, (1R,2R or 1S,2S)-2-{3-[(2-tert-butyl-1,1-dioxido-2,3-dihydro-1,2-benzisothiazol-5-yl)amino]-4-oxo-4,5-dihydro-1H-pyrazolo[4,3-c]pyridin-1-yl}cycloheptanecarbonitrile] |
| 0.23 | N#C[C@H]1CCCC[C@@H]1n1nc(Nc2ccc3c(c2)CC2(CC2)C3(O)C(F)(F)F)c2c(=O)[nH]ccc21 (single isomer, unassigned) [Example 3-124, (1S,2S)-2-(3-(((R or S)-1′-hydroxy-1′-(trifluoromethyl)-1′,3′-dihydrospiro[cyclopropane-1,2′-inden]-5′-yl)amino)-4-oxo-4,5-dihydro-1H-pyrazolo[4,3-c]pyridin-1-yl)cyclohexanecarbonitrile] |
| 0.49 | CC(C)(C)OC(=O)CCN1Cc2ccc(Nc3nn([C@H]4CCCC[C@@H]4C#N)c4cc[nH]c(=O)c34)cc2C1 [Example 3-163, tert-butyl 3-[5-({1-[(1S,2S)-2-cyanocyclohexyl]-4-oxo-4,5-dihydro-1H-pyrazolo[4,3-c]pyridin-3-yl}amino)-1,3-dihydro-2H-isoindol-2-yl]propanoate] |
| 0.42 | N#C[C@@H]1CCCCC[C@H]1n1nc(Nc2ccc3c(c2)CN(C(=O)N2CCCCC2)C3)c2c(=O)[nH]ccc21 (single isomer, unassigned) [Example 15-53, (1R,2R or 1S,2S)-2-(4-oxo-3-{[2-(piperidin-1-ylcarbonyl)-2,3-dihydro-1H-isoindol-5-yl]amino}-4,5-dihydro-1H-pyrazolo[4,3-c]pyridin-1-yl)cycloheptanecarbonitrile] |
| 0.057 | CC(C)N1Cc2cc(Nc3nn([C@H]4CCCC[C@@H]4C#N)c4cc[nH]c(=O)c34)ccc2C1=O [Example 3-153, (1S,2S)-2-(3-{[2-(1-methylethyl)-1-oxo-2,3-dihydro-1H-isoindol-5-yl]amino}-4-oxo-4,5-dihydro-1H-pyrazolo[4,3-c]pyridin-1-yl)cyclohexanecarbonitrile] |
| 2.5 | N#C[C@@H]1CCCC[C@@H]1n1nc(Nc2ccc(F)cc2)c2c(=O)[nH]ccc21 (racemic) [Example 1-1, (cis)-2-{3-[(4-Fluorophenyl)amino]-4-oxo-4,5-dihydro-1H-pyrazolo[4,3-c]pyridin-1-yl}cyclohexanecarbonitrile] |
| 0.56 | N#C[C@H]1CCCC[C@@H]1n1nc(Nc2ccc(F)cc2)c2c(=O)[nH]ccc21 (racemic) [Example 2-1, (trans)-2-{3-[(4-Fluorophenyl)amino]-4-oxo-4,5-dihydro-1H-pyrazolo[4,3-c]pyridin-1-yl}cyclohexanecarbonitrile] |
| 0.069 | N#C[C@H]1CCC[C@@H]1n1nc(Nc2ccc(C3(C(F)(F)F)CCCCN3)cc2)c2c(=O)[nH]ccc21 (single isomer, unassigned) [Example 15-71, (1S,2S)-2-[4-oxo-3-({4-[(2S or 2R)-2-(trifluoromethyl)piperidin-2-yl]phenyl}amino)-4,5-dihydro-1H-pyrazolo[4,3-c]pyridin-1-yl]cyclopentanecarbonitrile] |
| 0.11 | CC(C)(CO)CN1Cc2cc(Nc3nn([C@H]4CCCC[C@@H]4C#N)c4cc[nH]c(=O)c34)ccc2S1(=O)=O [Example 3-82, (1S,2S)-2-(3-{[2-(3-hydroxy-2,2-dimethylpropyl)-1,1-dioxido-2,3-dihydro-1,2-benzisothiazol-5-yl]amino}-4-oxo-4,5-dihydro-1H-pyrazolo[4,3-c]pyridin-1-yl)cyclohexanecarbonitrile] |
| 0.36 | CC(C)C(c1ccc(Nc2nn([C@H]3CCCC[C@@H]3C#N)c3cc[nH]c(=O)c23)cc1)n1nccn1 (single isomer, unassigned) [Example 15-30, (1S,2S)-2-[3-({4-[(1S or 1R)-2-methyl-1-(2H-1,2,3-triazol-2-yl)propyl]phenyl}amino)-4-oxo-4,5-dihydro-1H-pyrazolo[4,3-c]pyridin-1-yl]cyclohexanecarbonitrile] |
| 0.58 | CC1NCc2cc(Nc3nn([C@H]4CCCC[C@@H]4C#N)c4cc[nH]c(=O)c34)ccc21 (single isomer, unassigned) [Example 12-4, (1S,2S)-2-(3-{[(1S or 1R)-1-methyl-2,3-dihydro-1H-isoindol-5-yl]amino}-4-oxo-4,5-dihydro-1H-pyrazolo[4,3-c]pyridin-1-yl)cyclohexanecarbonitrile] |
| 0.81 | CC1NCc2cc(Nc3nn([C@H]4CCCC[C@@H]4C#N)c4cc[nH]c(=O)c34)ccc21 (mixture of isomers) [Example 12-3, (1S,2S)-2-(3-{[(1S and 1R)-1-methyl-2,3-dihydro-1H-isoindol-5-yl]amino}-4-oxo-4,5-dihydro-1H-pyrazolo[4,3-c]pyridin-1-yl)cyclohexanecarbonitrile] |
| 0.077 | N#C[C@H]1CCC[C@@H]1n1nc(Nc2ccc(C3(C(F)(F)F)CCCCN3)cc2)c2c(=O)[nH]ccc21 (single isomer, unassigned) [Example 15-72, (1S,2S)-2-[4-oxo-3-({4-[(2R or 2S)-2-(trifluoromethyl)piperidin-2-yl]phenyl}amino)-4,5-dihydro-1H-pyrazolo[4,3-c]pyridin-1-yl]cyclopentanecarbonitrile] |
| 0.094 | CC1(C)C(O)c2cc(Nc3nn([C@H]4CCCC[C@@H]4C#N)c4cc[nH]c(=O)c34)ccc2S1(=O)=O (single isomer, unassigned) [Example 3-173, (1S,2S)-2-(3-{[(3R or 3S)-3-hydroxy-2,2-dimethyl-1,1-dioxido-2,3-dihydro-1-benzothiophen-5-yl]amino}-4-oxo-4,5-dihydro-1H-pyrazolo[4,3-c]pyridin-1-yl)cyclohexanecarbonitrile] |
| 0.15 | CC(c1ccc(Nc2nn([C@H]3CCCC[C@@H]3C#N)c3cc[nH]c(=O)c23)cc1)n1ccnn1 (single isomer, unassigned) [Example 15-42, (1S,2S)-2-[4-oxo-3-({4-[(1S or 1R)-1-(1H-1,2,3-triazol-1-yl)ethyl]phenyl}amino)-4,5-dihydro-1H-pyrazolo[4,3-c]pyridin-1-yl]cyclohexanecarbonitrile] |
| 0.15 | CC(C)S(=O)(=O)c1ccc(Nc2nn([C@H]3CCCC[C@@H]3C#N)c3cc[nH]c(=O)c23)cc1 [Example 3-141, (1S,2S)-2-[3-({4-[(1-methylethyl)sulfonyl]phenyl}amino)-4-oxo-4,5-dihydro-1H-pyrazolo[4,3-c]pyridin-1-yl]cyclohexanecarbonitrile] |
| 0.12 | CC(C)(C)S(=O)(=O)c1ccc(Nc2nn([C@H]3CCCC[C@@H]3C#N)c3cc[nH]c(=O)c23)cc1 [Example 3-143, (1S,2S)-2-(3-{[4-(tert-butylsulfonyl)phenyl]amino}-4-oxo-4,5-dihydro-1H-pyrazolo[4,3-c]pyridin-1-yl)cyclohexanecarbonitrile] |
